The target in experiment [1] is NvEcR11DEF-NvUSPDEF (Nezara viridula, UniProt E5L6Y2). Kind of experiment: Competition binding with [3H]ponasterone A, NvEcR11DEF-NvUSPDEF. The following applies: for Ki: calculated from IC50 with the Cheng-Prusoff equation; for IC50: competition with 1.3 nM bindable [3H]ponasterone A. The protocol:
(§1) Ligand binding was measured by a [^3H]ponasterone A binding assay which involved trapping of [^3H]ponasterone A-receptor protein complex on glass fibre discs and washing away unbound steroid before scintillation counting in a Packard Tri-carb scintillation analyser. All such assays, unless otherwise stated, were conducted at the same concentration of bindable [^3H]ponasterone A (2.2 nM, after correcting for the fraction of radioactive material that could never be bound no matter how much receptor was added). Binding by the receptor was expressed in terms of arbitrary units (U) that, in the linear range of the assay (i.e. up to 30 000 cpm bound per filter), were directly proportional to filter-bound cpm. Historically, IU was defined as the amount of [^3H]ponasterone A binding conveyed by a fixed volume of a specific receptor preparation. Differences in the assay over time were corrected for empirically by re-assaying the reference receptor preparation with each new batch of [^3H]ponasterone A and calculating a batch-specific adjustment that was incorporated into the numerical factor used to convert filter-bound cpm into ligand binding units. On average, 1 pmol of receptor-bound [^3H]ponasterone A corresponds to approximately 15.2 U. Specific activity values (U/μg protein) can be calculated for different preparations of purified receptor and these reflect the purity of the preparation, the proportion of receptor that is functional, and the Kd value for that particular receptor.
(§2) Increasing concentrations of, ponasterone A, muristerone A, 20-hydroxyecdysone, inokosterone, and α-ecdysone (2β, 3β, 14α,22R, 25-pentahydroxy-5β-cholest-7-ene-6-one) were used to study the ability to compete with a 1.3 nM bindable concentration of [^3H] ponasterone A for binding to the Nv recombinant heterodimers NvEcR10DEF−NvUSPDEF and NvEcR11DEF−NvUSPDEF. IC50 values were obtained from smooth curves drawn through the data points (see FIG. 6), and from these Ki values were calculated using the Cheng-Prusoff equation (Cheng et at, 1973).

Experiment [2] has as its target NvEcR10DEF-NvUSPDEF (Nezara viridula, UniProt E5L6Y1). Kind of experiment: Competition binding with [3H]ponasterone A, NvEcR10DEF-NvUSPDEF. The following applies: for Ki: calculated from IC50 with the Cheng-Prusoff equation; for IC50: competition with 1.3 nM bindable [3H]ponasterone A. The protocol: as §1, §2
Experiment [3] addresses ecdysone receptor recombinant ligand binding domains (DEF regions) heterodimer. As to the kind of experiment: [3H]ponasterone A binding, Helicoverpa armigera recombinant ligand binding region heterodimer. The following applies: IMAC-purified Helicoverpa armigera heterodimer; previously studied by this group. As for the experimental part: as §1, with “Differences in the assay over time were corrected for empirically by re-assaying the reference receptor preparation with each new batch of [^3H]ponasterone A and calculating a batch-specific adjustment that was incorporated into the numerical factor used to convert filter-bound cpm into ligand binding units.” left out, “receptor. […]” for “receptor.”

Experiment [4] deals with NvEcR11DEF-NvUSPDEF recombinant ecdysone receptor ligand binding region heterodimer. As to the kind of experiment: [3H]ponasterone A filter binding assay / equilibrium binding, NvEcR11DEF-NvUSPDEF. Set-up: species or system Nezara viridula. As for the experimental part: (§3) Ponasterone A binding data used in Kd determination for the purified recombinant heterodimers NvEcR10DEF−NvUSPDEF and NvEcR11DEF−NvUSPDEF (Kd curves). Rt=concentration of active receptor. L=free [^3H] Ponasterone A. All values in tables are given in pM.
as §1, with “Historically, IU was defined as the amount of [^3H]ponasterone A binding conveyed by a fixed volume of a specific receptor preparation. Differences in the assay over time were corrected for empirically by re-assaying the reference receptor preparation with each new batch of [^3H]ponasterone A and calculating a batch-specific adjustment that was incorporated into the numerical factor used to convert filter-bound cpm into ligand binding units.” left out, “receptor. […]” for “receptor.”

Experiment [5] deals with NvEcR10DEF-NvUSPDEF recombinant ecdysone receptor ligand binding region heterodimer. As to the kind of experiment: [3H]ponasterone A filter binding assay / equilibrium binding, NvEcR10DEF-NvUSPDEF. Further details: species or system Nezara viridula. As for the experimental part: as §3
as §1, with “Historically, IU was defined as the amount of [^3H]ponasterone A binding conveyed by a fixed volume of a specific receptor preparation. Differences in the assay over time were corrected for empirically by re-assaying the reference receptor preparation with each new batch of [^3H]ponasterone A and calculating a batch-specific adjustment that was incorporated into the numerical factor used to convert filter-bound cpm into ligand binding units.” left out, “receptor. […]” for “receptor.”

Experiment [6] addresses ecdysone receptor recombinant ligand binding domains (DEF regions) heterodimer. Kind of experiment: [3H]ponasterone A binding, Bemisia tabaci recombinant ligand binding region heterodimer. The following applies: IMAC-purified Bemisia tabaci heterodimer; previously studied by this group. The protocol: as §1, with “Differences in the assay over time were corrected for empirically by re-assaying the reference receptor preparation with each new batch of [^3H]ponasterone A and calculating a batch-specific adjustment that was incorporated into the numerical factor used to convert filter-bound cpm into ligand binding units.” left out, “receptor. […]” for “receptor.”

Experiment [7] shares this target. Kind of experiment: [3H]ponasterone A binding, Myzus persicae recombinant ligand binding region heterodimer. The following applies: IMAC-purified Myzus persicae heterodimer; previously studied by this group. The protocol: as §1, with “Differences in the assay over time were corrected for empirically by re-assaying the reference receptor preparation with each new batch of [^3H]ponasterone A and calculating a batch-specific adjustment that was incorporated into the numerical factor used to convert filter-bound cpm into ligand binding units.” left out, “receptor. […]” for “receptor.”

Experiment [8] shares this target. Kind of experiment: [3H]ponasterone A binding, Lucilia cuprina recombinant ligand binding region heterodimer. The following applies: IMAC-purified Lucilia cuprina heterodimer; previously studied by this group. The protocol: as §1, with “Differences in the assay over time were corrected for empirically by re-assaying the reference receptor preparation with each new batch of [^3H]ponasterone A and calculating a batch-specific adjustment that was incorporated into the numerical factor used to convert filter-bound cpm into ligand binding units.” left out

Experiment [9] addresses T1, FLAG-tagged NvUSPDEF (DEF domains / ligand binding region of Nezara viridula ultraspiracle protein) (Nezara viridula).
T1 construct: Co-expressed with His6-EcRDEF (isoform 10 or 11) in Sf9 cells; also called FLAG USPDEF; FLAG USPDEF5.1
T1 chain: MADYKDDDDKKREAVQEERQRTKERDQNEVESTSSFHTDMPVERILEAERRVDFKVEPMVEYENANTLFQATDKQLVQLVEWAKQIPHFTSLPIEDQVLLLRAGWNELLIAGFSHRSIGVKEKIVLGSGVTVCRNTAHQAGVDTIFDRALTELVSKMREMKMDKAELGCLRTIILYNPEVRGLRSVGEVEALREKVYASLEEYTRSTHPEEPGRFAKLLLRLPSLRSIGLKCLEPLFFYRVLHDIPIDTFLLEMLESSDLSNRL
Kind of experiment: IMAC co-purification of the heterodimer through the His6 tag on EcRDEF, from Sf9 cell extracts.

By Ki is commonly meant the equilibrium dissociation constant of an inhibitor or competing ligand from its target. One may read the IC50 as the concentration needed to halve the response being measured. Lower therefore signals greater potency in that assay. Consider `CC(C(O)CCC(C)(C)O)C1CCC2(O)C3=CC(=O)C4CC(O)C(O)CC4(C)C3CCC12C` [α-Ecdysone, 2β, 3β, 14α,22R, 25-pentahydroxy-5β-cholest-7-ene-6-one], for which, in experiment [1], the Ki is 45.2 µM and the IC50 stood at 53 µM. Moreover, in [2], the Ki was 46.2 µM and the IC50 amounted to 55 µM.
The Kd is the constant that tells how readily two partners part at equilibrium. With [^3H]ponasterone A, the Kd in [3] is 2.5 ± 0.1 nM; in experiment [4] (equilibrium binding of [3H]ponasterone A to IMAC-purified NvEcR11DEF-NvUSPDEF), 7.5 ± 0.8 nM; in experiment [5] (equilibrium binding of [3H]ponasterone A to IMAC-purified NvEcR10DEF-NvUSPDEF) it was 6.8 ± 0.8 nM; in experiment [6] it was 1.2 ± 0.2 nM; in experiment [7] it was 0.7 ± 0.1 nM; in experiment [8], 1 ± 0.1 nM. For the same molecule, the “Specific activity ([3H]ponasterone A binding units per μg protein)” value in experiment [4] (IMAC-purified NvEcR11DEF-NvUSPDEF, 2.2 nM bindable [3H]ponasterone A) was 7.3 U/μg; in [5] (IMAC-purified NvEcR10DEF-NvUSPDEF, 2.2 nM bindable [3H]ponasterone A), 5.0 U/μg; in experiment [6] it was 11.3 U/μg; in experiment [7], 17.3-18.8 U/μg; in experiment [8], 15.4-24.3 U/μg.
Turning to `CC(C)CC[C@@H](O)[C@](C)(O)[C@H]1CC[C@@]2(O)C3=CC(=O)[C@]4(O)C[C@@H](O)[C@@H](O)C[C@]4(C)[C@H]3[C@H](O)C[C@]12C` [Muristerone A], the Ki in [1] and in experiment [2] was 0.1 µM each time. Further, the IC50 in [1] and in experiment [2] was 0.12 µM each time.
`CC(CO)CC[C@@H](O)[C@](C)(O)[C@H]1CC[C@@]2(O)C3=CC(=O)[C@@H]4C[C@@H](O)[C@@H](O)C[C@]4(C)[C@H]3CC[C@]12C` (stereo partly drawn) [Inokosterone]: the inhibitory constant (Ki) in [1] was 6.8 µM; in experiment [2], 6.3 µM. In addition, the half-inhibitory concentration (IC50) in [1] amounted to 8 µM; in [2] it was 7.5 µM.
In the same order, the values of `CC(C)CC[C@@H](O)[C@](C)(O)[C@H]1CC[C@@]2(O)C3=CC(=O)[C@@H]4C[C@@H](O)[C@@H](O)C[C@]4(C)[C@H]3CC[C@]12C` [Ponasterone A] are 0.2 µM, 0.2 µM, 0.28 µM and 0.26 µM.
In the same order, the values of “2β, 3β, 14α, 20R,22R,25-hexahydroxy-5β-cholest-7-′ene-6-one [20-hydroxyecdysone]” are 3.8 µM, 3.6 µM, 4.5 µM and 4 µM.

B1: (His)6-tagged NvEcR10DEF (DEF domains / ligand binding region of Nezara viridula ecdysone receptor protein isoform NvEcR10) (receptor)
chain: MGMRGSHHHHHHRPECVVPEYQCAVKRKEKKAQKDKDKPVSTTNGSPESIKVEEPHRVVYKTEGETLGRPVPINGVKPVSPEQEELIHRLVYFQNEYEHPSEEDLRRIVSNTPNEDEEQSDQRFRHLTEITILTVQLIVEFAKRLPGFDKLLREDQIALLKACSSEVMMLRMARKYDATTDSILFANNQPYNRESYSLAGMGDVIEDLLRFCRHMFNMKVDNAEYALLTAIVIFSERPALIEGWKVEKIQEIYLEALKSYVDNRSRPRSPTIFAKLLSVLTELRTLGNQNSEMCFSLKLQNKKLPPFLAEIWDVNT
notes: Co-expressed with FLAG-NvUSPDEF in Sf9 cells from one baculovirus; also called His6EcRDEF10.1; EcRDEF
Consider B1, for which the binding result in experiment [9] is “binds”.

B2: (His)6-tagged NvEcR11DEF (DEF domains / ligand binding region of Nezara viridula ecdysone receptor protein isoform NvEcR11) (receptor)
chain: MGMRGSHHHHHHRPECVVPEYQCAVKRKEKKAQKDKDKPVSTTNGSPESIKVEEPHRVVYKTEGETLGRPVPINGVKPVSPEQEELIHRLVYFQNEYEHPSEEDLRRINTPNEDEEQSDQRFRHLTEITILTVQLIVEFAKRLPGFDKLLREDQIALLKACSSEVMMLRMARKYDATTDSILFANNQPYNRESYSLAGMGDVIEDLLRFCRHMFNMKVDNAEYALLTAIVIFSERPALIEGWKVEKIQEIYLEALKSYVDNRSRPRSPTIFAKLLSVLTELRTLGNQNSEMCFSLKLQNKKLPPFLAEIWDVNT
notes: Co-expressed with FLAG-NvUSPDEF in Sf9 cells from one baculovirus; also called His6EcRDEF11.1; EcRDEF
Regarding B2, the binding result in experiment [9] is given as “binds”.

(Values after US20070212716A1, “Nezara viridula Ecdysone Receptor” (Commonwealth Scientific & Industrial Research Org., priority 2006, published 2007).)
